Among the data in patent US20210070748A1, “INHIBITORS OF BRUTONS TYROSINE KINASE” (Pharmacyclics LLC, priority 2015, published 2021) are IC50 values, retold here.

The term IC50 denotes the concentration at which inhibition is half-maximal.

Holding throughout (format): biochemical
In one assay the target is SRC (Homo sapiens, UniProt P12931). As to the kind of experiment: Inhibition of a panel of kinases, in vitro HotSpot kinase assay: SRC. The procedure:
(§1) The degree of inhibition of a panel of kinases is determined using the in vitro HotSpot kinase assay (purified enzymes, ^33P-ATP, an appropriate substrate and 1 μM ATP).

For the next assay, the target named is T1, BTK-WT (Homo sapiens, UniProt Q06187).
T1 construct: purified from insect cells as a full-length construct containing an N-terminal 6X-His tag; His6 (N); made in house; host or cells: insect cells (baculovirus Sf21 in Method B)
T1 sequence (Q06187 whole entry): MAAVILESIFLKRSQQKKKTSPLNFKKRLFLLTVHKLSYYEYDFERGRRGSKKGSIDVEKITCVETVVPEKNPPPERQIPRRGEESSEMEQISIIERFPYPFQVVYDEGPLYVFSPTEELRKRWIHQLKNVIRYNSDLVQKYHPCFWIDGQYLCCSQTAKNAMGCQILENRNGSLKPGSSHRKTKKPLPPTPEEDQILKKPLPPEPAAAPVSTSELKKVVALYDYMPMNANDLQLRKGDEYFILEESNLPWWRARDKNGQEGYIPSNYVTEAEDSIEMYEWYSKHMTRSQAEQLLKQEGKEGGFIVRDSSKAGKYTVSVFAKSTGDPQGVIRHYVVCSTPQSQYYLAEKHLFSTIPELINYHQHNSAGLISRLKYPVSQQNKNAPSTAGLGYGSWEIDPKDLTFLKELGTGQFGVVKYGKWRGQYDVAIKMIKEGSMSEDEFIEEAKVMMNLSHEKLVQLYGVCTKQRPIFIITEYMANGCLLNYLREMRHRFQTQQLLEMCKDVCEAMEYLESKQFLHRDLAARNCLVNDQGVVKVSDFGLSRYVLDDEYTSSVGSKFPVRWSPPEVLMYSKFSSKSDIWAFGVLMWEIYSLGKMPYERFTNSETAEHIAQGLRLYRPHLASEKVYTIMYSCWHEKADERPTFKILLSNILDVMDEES
As to the kind of experiment: Btk in vitro inhibitory activity (one of Method A TR-FRET, Method B electrophoretic mobility shift, Method C radiometric filter binding). Particulars: read-out: IC50 BTK-WT. In general terms: Mobility shift assays separate free from complexed probe on a gel.

A further assay has as its target EGFR (Homo sapiens, UniProt P00533). As to the kind of experiment: Inhibition of a panel of kinases, in vitro HotSpot kinase assay: EGFR. The procedure:
as §1

The next assay addresses LCK (Homo sapiens, UniProt P06239). Description: Inhibition of a panel of kinases, in vitro HotSpot kinase assay: LCK. Particulars: read-out: IC50 LCK.
A further assay deals with T2, TEC (Homo sapiens, UniProt P42680).
T2 sequence (P42680 1-631): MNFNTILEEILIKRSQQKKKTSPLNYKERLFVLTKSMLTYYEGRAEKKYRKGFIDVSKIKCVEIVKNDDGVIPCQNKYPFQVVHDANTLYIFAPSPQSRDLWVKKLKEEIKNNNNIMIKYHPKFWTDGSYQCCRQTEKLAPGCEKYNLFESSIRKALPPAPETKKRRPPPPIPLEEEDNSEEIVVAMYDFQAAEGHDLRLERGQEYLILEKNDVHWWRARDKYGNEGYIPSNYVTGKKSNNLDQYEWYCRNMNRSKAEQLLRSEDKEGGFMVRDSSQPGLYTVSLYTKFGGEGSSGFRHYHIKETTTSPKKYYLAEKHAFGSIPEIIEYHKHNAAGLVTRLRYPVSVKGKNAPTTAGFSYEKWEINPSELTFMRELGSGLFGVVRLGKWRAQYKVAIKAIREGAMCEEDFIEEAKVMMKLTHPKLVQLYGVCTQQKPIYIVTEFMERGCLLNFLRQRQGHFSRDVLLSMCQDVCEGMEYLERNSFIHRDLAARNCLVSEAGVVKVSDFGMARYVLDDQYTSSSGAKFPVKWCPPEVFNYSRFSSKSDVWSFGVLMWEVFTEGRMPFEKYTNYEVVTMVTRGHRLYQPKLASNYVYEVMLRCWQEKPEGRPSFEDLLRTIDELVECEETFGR
Description: Inhibition of a panel of kinases, in vitro HotSpot kinase assay: TEC. The protocol: as §1

The mark [1] stands for this setting: D-compounds panel data, 1 μM ATP.

Read-outs that look alike come from different tables or passages of the source.

Sequence of EGFR (P00533 25-1210): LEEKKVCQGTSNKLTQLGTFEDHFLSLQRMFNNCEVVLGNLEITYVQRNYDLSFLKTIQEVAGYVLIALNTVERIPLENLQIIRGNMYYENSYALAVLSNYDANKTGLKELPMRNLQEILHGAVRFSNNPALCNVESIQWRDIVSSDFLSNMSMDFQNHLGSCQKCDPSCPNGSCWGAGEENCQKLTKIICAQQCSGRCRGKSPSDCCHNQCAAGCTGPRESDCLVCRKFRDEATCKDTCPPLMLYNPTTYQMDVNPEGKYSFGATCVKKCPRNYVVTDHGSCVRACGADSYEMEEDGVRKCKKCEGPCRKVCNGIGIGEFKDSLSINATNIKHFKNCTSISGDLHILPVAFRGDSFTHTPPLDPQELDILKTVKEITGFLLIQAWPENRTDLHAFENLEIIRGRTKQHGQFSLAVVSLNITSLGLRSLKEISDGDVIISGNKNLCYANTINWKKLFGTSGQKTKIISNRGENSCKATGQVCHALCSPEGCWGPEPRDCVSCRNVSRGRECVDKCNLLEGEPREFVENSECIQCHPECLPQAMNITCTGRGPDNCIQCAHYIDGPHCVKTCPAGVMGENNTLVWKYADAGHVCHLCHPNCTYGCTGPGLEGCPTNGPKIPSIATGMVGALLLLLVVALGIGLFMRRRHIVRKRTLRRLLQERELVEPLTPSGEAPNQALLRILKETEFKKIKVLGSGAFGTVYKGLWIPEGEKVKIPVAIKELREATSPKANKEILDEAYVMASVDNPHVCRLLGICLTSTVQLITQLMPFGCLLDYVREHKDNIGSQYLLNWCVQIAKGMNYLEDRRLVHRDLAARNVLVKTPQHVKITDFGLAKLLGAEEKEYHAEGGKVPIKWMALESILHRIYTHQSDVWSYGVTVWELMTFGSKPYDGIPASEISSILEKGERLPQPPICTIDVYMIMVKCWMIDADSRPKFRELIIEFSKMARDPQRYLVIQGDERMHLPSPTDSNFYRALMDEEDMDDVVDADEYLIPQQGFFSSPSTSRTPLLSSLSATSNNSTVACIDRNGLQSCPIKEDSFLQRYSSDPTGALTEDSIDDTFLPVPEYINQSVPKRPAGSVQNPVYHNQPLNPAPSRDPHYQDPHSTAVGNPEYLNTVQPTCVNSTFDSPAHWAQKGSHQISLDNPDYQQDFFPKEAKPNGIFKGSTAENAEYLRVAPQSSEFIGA
Sequence of SRC (P12931 whole entry): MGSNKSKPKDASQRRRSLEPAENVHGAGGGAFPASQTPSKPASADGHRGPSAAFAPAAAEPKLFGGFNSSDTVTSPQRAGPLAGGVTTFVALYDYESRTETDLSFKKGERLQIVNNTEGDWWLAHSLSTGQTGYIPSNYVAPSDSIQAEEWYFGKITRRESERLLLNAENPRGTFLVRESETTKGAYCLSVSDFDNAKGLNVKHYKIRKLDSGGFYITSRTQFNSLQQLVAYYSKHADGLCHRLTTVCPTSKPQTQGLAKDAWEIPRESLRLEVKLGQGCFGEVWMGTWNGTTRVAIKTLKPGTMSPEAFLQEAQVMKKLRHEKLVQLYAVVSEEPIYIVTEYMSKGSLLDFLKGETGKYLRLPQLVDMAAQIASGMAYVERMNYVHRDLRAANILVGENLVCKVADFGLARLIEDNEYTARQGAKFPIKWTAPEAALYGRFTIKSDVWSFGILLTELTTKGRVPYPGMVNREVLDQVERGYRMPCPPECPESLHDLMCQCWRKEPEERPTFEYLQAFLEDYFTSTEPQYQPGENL
Sequence of LCK (P06239 whole entry): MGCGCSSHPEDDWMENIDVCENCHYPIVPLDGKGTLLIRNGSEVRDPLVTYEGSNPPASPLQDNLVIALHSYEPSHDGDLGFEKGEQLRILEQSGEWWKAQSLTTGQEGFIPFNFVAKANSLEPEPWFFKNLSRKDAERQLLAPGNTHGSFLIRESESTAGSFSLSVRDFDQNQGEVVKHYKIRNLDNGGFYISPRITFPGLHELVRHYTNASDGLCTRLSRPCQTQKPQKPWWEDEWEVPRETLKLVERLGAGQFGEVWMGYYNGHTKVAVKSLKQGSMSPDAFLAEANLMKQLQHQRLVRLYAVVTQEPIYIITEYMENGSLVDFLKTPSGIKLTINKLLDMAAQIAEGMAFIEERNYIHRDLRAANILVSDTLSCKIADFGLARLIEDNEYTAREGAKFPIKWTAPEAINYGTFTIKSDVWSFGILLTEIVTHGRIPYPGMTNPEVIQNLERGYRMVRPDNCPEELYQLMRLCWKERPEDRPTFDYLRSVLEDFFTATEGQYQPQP

Regarding `C[C@@H]1[C@H](NC(=O)c2ccc(C(C)(C)CO)cc2)CCCN1c1cnc(C(N)=O)c(Nc2cnn(C)c2)n1` [Example D-94, 5-[(2R,3R)-3-[4-(1-hydroxy-2-methylpropan-2-yl)benzamido]-2-methylpiperidin-1-yl]-3-[(1-methyl-1H-pyrazol-4-yl)amino]pyrazine-2-carboxamide], the IC50 against SRC (setting [1]) was 0.01 to 0.1 µM; at BTK-WT (D-compounds panel data), not above 0.01 µM; against EGFR (setting [1]), 1 to 10 µM; on LCK (setting [1]), 0.1 to 1 µM; against TEC (setting [1]), 0.01 to 0.1 µM.

Turning to `CN(C)C(=O)N[C@@H]1CCCN(c2cnc(C(N)=O)c(Nc3ccc(C4(C)CCN(C5CCCC5)CC4)cc3)n2)[C@@H]1CO` [Example D-58, 3-{[4-(1-cyclopentyl-4-methylpiperidin-4-yl)phenyl]amino}-5-[(2S,3R)-3-[(dimethylcarbamoyl)amino]-2-(hydroxymethyl)piperidin-1-yl]pyrazine-2-carboxamide], the IC50 against SRC (setting [1]) was 0.1 to 1 µM; at BTK-WT (D-compounds panel data), not above 0.01 µM; against EGFR (setting [1]), 0.1 to 1 µM; at LCK (setting [1]), 0.1 to 1 µM; on TEC (setting [1]), 0.1 to 1 µM.

Take `Cc1cc(Nc2nc(N3CCC[C@H](NC(=O)N(C)C)[C@@H]3CO)cnc2C(N)=O)sn1` [Example D-68, 5-[(2R,3S)-3-[(dimethylcarbamoyl)amino]-2-(hydroxymethyl)piperidin-1-yl]-3-[(3-methyl-1,2-thiazol-5-yl)amino]pyrazine-2-carboxamide]: the IC50 against SRC (setting [1]) is 1 to 10 µM; on BTK-WT (D-compounds panel data) it was 1 to 10 µM; against EGFR (setting [1]), more than 10 µM; at LCK (setting [1]), more than 10 µM; on TEC (setting [1]) it was more than 10 µM.

Take `C[C@@H]1[C@H](N2Cc3cc(C4CC4)ccc3C2=O)CCCN1c1cnc(C(N)=O)c(Nc2cnn(C)c2)n1` [Example D-36, 5-[(2R,3R)-3-(5-cyclopropyl-1-oxo-2,3-dihydro-1H-isoindol-2-yl)-2-methylpiperidin-1-yl]-3-[(1-methyl-1H-pyrazol-4-yl)amino]pyrazine-2-carboxamide]: the IC50 on SRC (setting [1]) is 0.1 to 1 µM; on BTK-WT (D-compounds panel data), not above 0.01 µM; against EGFR (setting [1]) it was 0.1 to 1 µM; at LCK (setting [1]), 0.1 to 1 µM; on TEC (setting [1]), not above 0.01 µM.

With `C[C@@H]1[C@H](NC(=O)c2ccc(N(C)C)cn2)CCCN1c1cnc(C(N)=O)c(Nc2cnn(C)c2)n1` [Example D-84, 5-[(2R,3R)-3-[5-(dimethylamino)pyridine-2-amido]-2-methylpiperidin-1-yl]-3-[(1-methyl-1H-pyrazol-4-yl)amino]pyrazine-2-carboxamide], the IC50 against SRC (setting [1]) was 0.01 to 0.1 µM; on BTK-WT (D-compounds panel data), not above 0.01 µM; against EGFR (setting [1]) it was 1 to 10 µM; on LCK (setting [1]), 0.1 to 1 µM; at TEC (setting [1]), not above 0.01 µM.

As for `C[C@@H]1[C@H](NC(=O)c2ccc(C3CC3)cc2)CCCN1c1cnc(C(N)=O)c(Nc2ccc3nccn3c2)n1` [Example D-83, 5-[(2R,3R)-3-(4-cyclopropylbenzamido)-2-methylpiperidin-1-yl]-3-({imidazo[1,2-a]pyridin-6-yl}amino)pyrazine-2-carboxamide], the 50% inhibitory concentration (IC50) was 0.1 to 1 µM against SRC (setting [1]); 0.01 to 0.1 µM at BTK-WT (D-compounds panel data); more than 10 µM against EGFR (setting [1]); 1 to 10 µM on LCK (setting [1]); 0.01 to 0.1 µM against TEC (setting [1]).

As to `Cn1cc(Nc2nc(N3C[C@H](CO)C[C@H](NC(=O)c4ccc(C5CC5)cc4)C3)cnc2C(N)=O)cn1` (racemic) [Example D-43, (racemic)-cis-5-[3-(4-cyclopropylbenzamido)-5-(hydroxymethyl)piperidin-1-yl]-3-[(1-methyl-1H-pyrazol-4-yl)amino]pyrazine-2-carboxamide], the IC50 against SRC (setting [1]) was 0.1 to 1 µM; at BTK-WT (D-compounds panel data) it was not above 0.01 µM; at EGFR (setting [1]), 1 to 10 µM; at LCK (setting [1]), 0.1 to 1 µM; against TEC (setting [1]), 0.01 to 0.1 µM.

For the compound `CC(C)n1ccc(C(=O)N[C@@H]2CCCN(c3cnc(C(N)=O)c(Nc4cnn(C)c4)n3)[C@@H]2C)cc1=O` [Example D-35, 3-[(1-methyl-1H-pyrazol-4-yl)amino]-5-[(2R,3R)-2-methyl-3-[2-oxo-1-(propan-2-yl)-1,2-dihydropyridine-4-amido]piperidin-1-yl]pyrazine-2-carboxamide], the IC50 on SRC (setting [1]) was 0.01 to 0.1 µM; on BTK-WT (D-compounds panel data) it was not above 0.01 µM; at EGFR (setting [1]) it was 1 to 10 µM; at LCK (setting [1]), 0.1 to 1 µM; at TEC (setting [1]), 0.01 to 0.1 µM.

For `CN1CCN(C(=O)c2ccc(Nc3nc(N[C@H]4CC[C@@H](NC(=O)c5ccc(C6CC6)cc5F)CC4)cnc3C(N)=O)cc2)CC1` [Example D-71, 3-{[4-(4-methylpiperazine-1-carbonyl)phenyl]amino}-5-{[(1 s,4s)-4-(4-cyclopropyl-2-fluorobenzamido)cyclohexyl]amino}pyrazine-2-carboxamide], the IC50 against SRC (setting [1]) was 0.1 to 1 µM; at BTK-WT (D-compounds panel data), 0.01 to 0.1 µM; against EGFR (setting [1]), 0.1 to 1 µM; on LCK (setting [1]), 0.01 to 0.1 µM; against TEC (setting [1]), 0.1 to 1 µM.

In the case of `Cc1cc(Nc2nc(N3C[C@H](NC(=O)N(C)C)CC[C@H]3C)cnc2C(N)=O)sn1` [Example D-77, 5-[(2R,5R)-5-[(dimethylcarbamoyl)amino]-2-methylpiperidin-1-yl]-3-[(3-methyl-1,2-thiazol-5-yl)amino]pyrazine-2-carboxamide], the IC50 at SRC (setting [1]) is 1 to 10 µM; on BTK-WT (D-compounds panel data) it was 0.1 to 1 µM; against EGFR (setting [1]), 1 to 10 µM; at LCK (setting [1]), 1 to 10 µM; against TEC (setting [1]), 1 to 10 µM.

Consider `C[C@@H]1[C@H](NC(=O)c2ccc(C3CC3)cc2)CCCN1c1cnc(C(N)=O)c(Nc2ccc(N3CCN(C)CC3)c(C(F)(F)F)c2)n1` [Example D-92, 5-[(2R,3R)-3-(4-cyclopropylbenzamido)-2-methylpiperidin-1-yl]-3-{[4-(4-methylpiperazin-1-yl)-3-(trifluoromethyl)phenyl]amino}pyrazine-2-carboxamide], for which the IC50 against SRC (setting [1]) was 0.1 to 1 µM; on BTK-WT (D-compounds panel data), not above 0.01 µM; at EGFR (setting [1]), 1 to 10 µM; at LCK (setting [1]), 0.1 to 1 µM; on TEC (setting [1]), 0.01 to 0.1 µM.

Consider `C=CC(=O)N1CC[C@@H](N(C)c2cnc(C(N)=O)c(Nc3ccc(C4(C)CCN(C5CC5)CC4)cc3)n2)C1` [Example E-104, (R)-5-((1-acryloylpyrrolidin-3-yl)(methyl)amino)-3-(4-(1-cyclopropyl-4-methylpiperidin-4-yl)phenylammo)pyrazine-2-carboxamide], for which the IC50 against SRC (E compounds, Table 17) is 0.01 to 0.1 µM; on BTK-WT (E compounds, Table 17) it was not above 0.01 µM; against EGFR (E compounds, Table 17) it was not above 0.01 µM; on LCK (E compounds, Table 17) it was 0.01 to 0.1 µM; at TEC (E compounds, Table 17), not above 0.01 µM.

For the compound `C[C@H]1C[C@H](NC(=O)c2ccc(C3CC3)cc2)CN(c2cnc(C(N)=O)c(Nc3cnn(C)c3)n2)C1` [Example D-34, 5-[(3S,5S)-3-(4-cyclopropylbenzamido)-5-methylpiperidin-1-yl]-3-[(1-methyl-1H-pyrazol-4-yl)amino]pyrazine-2-carboxamide], the IC50 on SRC (setting [1]) was more than 10 µM; at BTK-WT (D-compounds panel data), 1 to 10 µM; at EGFR (setting [1]), more than 10 µM; on LCK (setting [1]) it was more than 10 µM; at TEC (setting [1]), 1 to 10 µM.

As to `C[C@@H]1[C@H](NC(=O)c2ccc(C3CC3)cc2F)CCCN1c1cnc(C(N)=O)c(Nc2ccc(N3CCN(C)CC3)c(F)c2)n1` [Example D-82, 5-[(2R,3R)-3-(4-cyclopropyl-2-fluorobenzamido)-2-methylpiperidin-1-yl]-3-{[3-fluoro-4-(4-methylpiperazin-1-yl)phenyl]amino}pyrazine-2-carboxamide], the IC50 is 0.01 to 0.1 µM against SRC (setting [1]); not above 0.01 µM at BTK-WT (D-compounds panel data); 0.1 to 1 µM against EGFR (setting [1]); 0.01 to 0.1 µM on LCK (setting [1]); 0.01 to 0.1 µM against TEC (setting [1]).

`C[C@@H]1[C@H](NC(=O)N(C)C)CCCN1c1cnc(C(N)=O)c(Nc2ccc(OC3CCN(C)CC3)cc2)n1` [Example D-33, 5-[(2R,3R)-3-[(dimethylcarbamoyl)amino]-2-methylpiperidin-1-yl]-3-({4-[(1-methylpiperidin-4-yl)oxy]phenyl}amino)pyrazine-2-carboxamide]: the IC50 against SRC (setting [1]) was 0.01 to 0.1 µM; on BTK-WT (D-compounds panel data), not above 0.01 µM; against EGFR (setting [1]) it was 0.1 to 1 µM; on LCK (setting [1]), 0.01 to 0.1 µM; at TEC (setting [1]), 0.01 to 0.1 µM.

On to `CN(C)C(=O)N1CC[C@@H]2[C@H]1CCCN2c1cnc(C(N)=O)c(Nc2cnn(C)c2)n1` (racemic) [Example D-50, (racemic)-cis-5-[1-(dimethylcarbamoyl)-octahydro-1H-pyrrolo[3,2-b]pyridin-4-yl]-3-[(1-methyl-1H-pyrazol-4-yl)amino]pyrazine-2-carboxamide], for which the 50% inhibitory concentration (IC50) is 0.1 to 1 µM against SRC (setting [1]); 0.01 to 0.1 µM at BTK-WT (D-compounds panel data); more than 10 µM against EGFR (setting [1]); 1 to 10 µM on LCK (setting [1]); 0.1 to 1 µM against TEC (setting [1]).
